Laboratory results published in patent publication US20200368234A1, “PHOTORECEPTOR GENE MODULATOR PHOTOREGULIN 3 FOR TREATMENT OF RETINAL DISEASE” (University of Washington, priority 2017, published 2020).
Entries after “also recorded” stand apart in the source; their conditions may differ.

Key:
Nr2e3 = target: T1, Nr2e3 (Homo sapiens, UniProt Q9Y5X4); assay: Isothermal titration calorimetry (ITC) of PR3 binding to Nr2e3; details: one site model, estimated
T1 construct: Nr2e3 protein (aa 90-410) was expressed; His8 (N, cleaved yes); MBP (N, cleaved yes); host or cells: E. coli BL21 (DE3)
Experimental: FIG. 1F illustrates an isothermal titration calorimetric (ITC) study of PR3 binding to Nr2e3. Nr2e3 protein was expressed as a fusion protein from the expression vector pVP16. The fusion protein was incubated with TEV overnight at 4° C. and then the His8-MBP tags were separated from Nr2e3 by ion exchange chromatography. For isothermal titration calorimetry, […] was injected into […] in a MicroCal ITC-200 (Malvern).
To confirm a direct Nr2e3-PR3 interaction, isothermal titration calorimetry (ITC) was used.
Nr2e3 protein (aa 90-410) was expressed as a His8-MBP-TEV fusion protein from the expression vector pVP16 (DNASU Plasmid ID: HsCD00084154). E. coli BL21 (DE3) cells were grown to an OD600 of 1, and then induced with 0.2 mM IPTG at 16° C. overnight. Cells were harvested, resuspended in extract buffer (20 mM Tris pH 8, 200 mM NaCl, 10% glycerol, 5 mM 2-mercaptoethanol, and saturated PMSF diluted 1:1,000), and then lysed by sonication on ice. Lysates were centrifuged at 4° C. and the supernatant was loaded onto an equilibrated column containing 5 mL of Ni-NTA agarose (Qiagen). […] For isothermal titration calorimetry, 100 μM PR3 was injected into 20 μM Nr2e3 in 10 mM sodium phosphate buffer pH 8 with 50 mM NaCl and 0.5% DMSO in a MicroCal ITC-200 (Malvern) and the data was analyzed with Origin 7.0 software.

rod photoreceptor genes = assay: RNA sequencing of retinas of wild type mice after intraperitoneal PR3; format: in vivo; details: 10 mg/kg i.p. at P12, retinas collected 24 h later
Experimental: Nr2e3 signaling is important for rod photoreceptor cell fate, development and maturation, and maintenance of expression. To determine the effect of PR3 treatment on gene expression in postmitotic retinal cells, wild type mice were systemically treated (intraperitoneal injection) with PR3 or vehicle at P12. At P13, 24 h after the injection, the retinas were collected for global transcriptome analysis by RNA sequencing.
(§1) Photoregulin3 was identified by searching previous small molecule screens with SciFinder and PubChem for Nr2e3 interacting molecules. It was initially obtained from ChemDiv and then synthesized and purified in large quantities in the lab after initial screening. For in vivo experiments, mice were injected intraperitoneally with PR3 dissolved in DMSO at 10 mg/kg.
RNA from retinas was isolated using TRIzol (Invitrogen) and total RNA integrity was checking using an Agilent 4200 TapeStation and quantified using a Trinean DropSense96 spectrophotometer. RNA-seq libraries were prepared from total RNA using the TruSeq RNA Sample Prep kit (Illumina) and a Sciclone NGSx Workstation (PerkinElmer). Library size distributions were validated using an Agilent 4200 TapeStation. Additional Library quality control, blending of pooled indexed libraries, and cluster optimization were performed using Life Technologies' Invitrogen Qubit Fluorometer. RNA-seq libraries were pooled (4-plex) and clustered onto a flow cell lane. Sequencing was performed using an Illumina HiSeq 2500 in rapid mode employing a paired-end, 50 base read length (PE50) sequencing strategy.

photoreceptors = assay: Electron microscopy of photoreceptor morphology in wild type mice after PR3; format: in vivo; details: 10 mg/kg i.p. for 3 consecutive days from P11, EM at P14
Experimental: FIG. 2C compares electron microscope micrographs of retinal sections of wild type mice treated with 10 mg/kg PR3 or DMSO vehicle. Compared to controls, PR3 retinas have arrested inner and outer segment development and less compact heterochromatin in the ONL. Scale bars represent 10 μm (top) and 2 μm (bottom).
Electron microscopy (EM) was used to perform an ultrastructural analysis of photoreceptor morphology after PR3 treatment. Wild type mice were intraperitoneally injected with vehicle or PR3 for 3 consecutive days starting at P11. At P14, 24 h after the third injection, the mice were euthanized and processed their retinas for EM. Photoreceptor outer segments begin to form during the second and third postnatal week; genetic loss-of-function mutations in Nr2e3 lead to an impairment in rod outer segment formation.
as §1
Mice were euthanized by CO2, and then perfused with 0.9% saline followed by 4% glutaraldehyde in 0.1 M sodium cacodylate buffer. Eye cups were fixed in 4% glutaraldehyde in 0.1 M sodium cacodylate buffer, washed with 0.1 M sodium cacodylate buffer, and then post-fixed in 2% osmium tetroxide. After fixation, eye cups were washed with water, dehydrated through a graded series of ethanol, incubated in propylene oxide and then epon araidite, polymerized overnight at 60° C., and then sectioned at a thickness of 70 nm. Images were obtained using a JEOL JEM-1230 electron microscope.

T1 sequence (Q9Y5X4 90-410): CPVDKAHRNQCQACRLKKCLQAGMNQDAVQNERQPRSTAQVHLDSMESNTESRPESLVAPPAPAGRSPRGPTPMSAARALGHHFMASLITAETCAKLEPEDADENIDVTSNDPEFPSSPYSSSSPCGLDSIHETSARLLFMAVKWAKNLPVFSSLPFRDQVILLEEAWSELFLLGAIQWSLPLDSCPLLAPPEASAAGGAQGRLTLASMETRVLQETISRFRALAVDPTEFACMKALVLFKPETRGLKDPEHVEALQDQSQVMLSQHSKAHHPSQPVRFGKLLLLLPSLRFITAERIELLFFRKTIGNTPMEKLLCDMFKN

For `COc1cc2nc(CN3CC=C(c4ccccc4)CC3)nc(O)c2cc1OC` [PR3], the Kd (Nr2e3) was ~67 µM, the “cone gene expression (RNA sequencing)” value (rod photoreceptor genes) was “large and global increases in cone gene expression were not observed” and the “toxicity to retinal cells (cell death and cell stress genes, RNA sequencing)” value (rod photoreceptor genes) was “not toxic to retinal cells”. The “rod photoreceptor gene expression (RNA sequencing)” value (rod photoreceptor genes; 10 mg/kg) was “robust reduction in rod photoreceptor genes; also recorded: decrease in most rod photoreceptor-specific transcripts”, the “heterochromatin of rod nuclei (EM)” value (photoreceptors) was “smaller patches of densely packed heterochromatin compared to DMSO retinas” and the “photoreceptor apoptosis / cell death in ONL nuclei (EM)” value (photoreceptors) was “not due to an increase in cell death”. The “photoreceptor outer segment development (EM)” value (photoreceptors) was “prevented outer segment development”.
